IC50 data for 36 compounds are collected here from patent US20240140931A1, “TRICYCLIC COMPOUNDS AND USES THEREOF” (HUTCHMED LIMITED, priority 2021, published 2024).

In assay [1] the target is Human full-length SHP2 recombinant protein (Homo sapiens (Human), UniProt Q06124). As to the kind of experiment: Assay of full-length SHP2 phosphatase activity. The format is biochemical. The note with it: DiFMUP substrate, with activating peptide. An outline of the steps:
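Full-length human SHP2 preincubated 30 min at RT with activating peptide and compound (1% DMSO final). DiFMUP substrate added, reaction 60 min at 25 °C in dark. Fluorescence at ex 355/em 460 nm; IC50 from 4-parameter fit against enzyme-free and vehicle controls.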

The subject of assay [2] is pERK1/2 (Thr202/Tyr204) in Miapaca2 cells. As to the kind of experiment: Assay of intracellular pERK1/2 (Thr202/Tyr204) phosphorylation. The assay is classed as cell-based. Conditions: pERK1/2 (Thr202/Tyr204) HTRF. In outline:
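Miapaca2 cells treated 2 h at 37 °C with compound (3-fold series; final DMSO 0.5%), then lysed 1 h. pERK1/2 (Thr202/Tyr204) detected by HTRF (665/615 nm ratio) after 2 h at 25 °C; normalized to cell-free lysis buffer and DMSO-treated cell controls; IC50 by four-parameter fit.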
(TR-FRET usually uses a lanthanide donor and a delayed reading to cut background.)

In assay [3] the test system is Miapaca2 3D spheroids. As to the kind of experiment: Assay of cell proliferation on Miapaca2 3D spheroids. The format is cell-based. The note with it: Homo sapiens, MIA PaCa-2, 120 h, CellTiter-Glo 3D, 5 days treatment. On the procedure:
Example 4 Assay of Cell Proliferation on Miapaca2 3D Spheroids
1. Reagents and Materials • CellTiter-Glo® 3D Cell Viability Assay Kit: Promega, Cat #G9683; • CellCarrier Spheroid ULA 96-well plate: Corning, Cat #4515; • Instrument: Envision, Perkinelmer; • Cell line: Miapaca2, ATCC, Cat #CRL-1420.
2. Preparation of Reaction Solutions • The test compound was dissolved in DMSO and diluted with DMSO to 3000.0 μM, and the compound was further 3-fold diluted with DMSO to: 1000.0, 333.3, 111.1, 37.0, 12.3, 4.1, and 1.4 μM. Then 2 μL of the compound at different dilution concentrations was added to 198 μL of a 1640 medium to prepare a 10× test compound, wherein DMSO was at the concentration of 1% (DMSO was at the final concentration of 0.1%).
3. Experimental Methods • Day0: Digest cells and count cell numbers. Miapaca2 cells were inoculated into a spheroid ULA 96-well plate at a density of 300 cells/well at 100 μL/well and cultured in a cell incubator at 5% CO2 and 37° C. • Day2: The cell spheroids formed at day2. Add 10 μL of 10× test compounds to the 96-well plate. To the cell positive control well was added 10 μL of 1% DMSO 1640 medium. Incubate the cell spheroids in a cell incubator at 5% CO2 and 37° C. for additional 5 days. • Cell viability assay: Add 50 μL of CellTiter-Glo reagent to each well, place the plate in a microplate shaker, and lysis under shaking at 900 rpm at room temperature for 5 minutes. Then incubate the plate at room temperature in the dark for 30 minutes. • The luminescene of each well was detected on Envision2104.
Cell Survial %=(Lum(d7 treatment)−Lum(d2 cell))/(Lum(d7 cell)−Lum(d2 cell))×100
Wherein: • Lum(d7 treatment) refers to the luminescene of the test compound treated cells on day7; • Lum(d2 cell) refers to the luminescene of the 0.1% DMSO treated Miapaca2 cells on day2; • Lum(d7 cell) refers to the luminescene of the 0.1% DMSO treated Miapaca2 cells on day7. • IC50 values were calculated following formula 205: y=A+((B−A)/(1+((C/X)^D))), by using the XL-Fit 5.0 software.
For orientation: ATP-based viability assays read luminescence as a measure of living cells.

pIC50: −log10 of the molar value.

Chain of Human full-length SHP2 recombinant protein (Q06124 whole entry): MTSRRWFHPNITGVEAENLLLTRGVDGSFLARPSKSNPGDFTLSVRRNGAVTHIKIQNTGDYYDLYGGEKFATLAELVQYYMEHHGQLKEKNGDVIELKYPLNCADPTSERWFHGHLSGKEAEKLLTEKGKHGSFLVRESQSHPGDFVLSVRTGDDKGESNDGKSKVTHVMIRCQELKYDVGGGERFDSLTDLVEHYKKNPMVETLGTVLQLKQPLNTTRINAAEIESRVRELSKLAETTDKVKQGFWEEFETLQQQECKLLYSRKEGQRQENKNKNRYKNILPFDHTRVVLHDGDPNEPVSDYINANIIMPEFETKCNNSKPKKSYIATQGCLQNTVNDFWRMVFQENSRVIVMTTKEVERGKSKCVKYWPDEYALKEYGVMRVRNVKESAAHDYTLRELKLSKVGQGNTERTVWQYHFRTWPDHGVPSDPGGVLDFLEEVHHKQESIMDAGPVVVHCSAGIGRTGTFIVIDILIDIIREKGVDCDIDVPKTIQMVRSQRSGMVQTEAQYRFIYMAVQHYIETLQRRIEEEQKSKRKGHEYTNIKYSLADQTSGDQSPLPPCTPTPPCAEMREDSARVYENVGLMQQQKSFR

As a reminder, the pIC50 is the IC50 on a negative log10 scale, so that one unit is a factor of ten. For `CNC(=O)C#Cc1ccc2c(c1)[C@@H](N)C1(CCN(c3cnc(Sc4cccnc4Cl)cn3)CC1)C2` [Compound 231], the pIC50 in assay [1] was > 9.30; in assay [2] (Homo sapiens, MIA PaCa-2, 2 h), 8.15; in assay [3], 9.10.
With `C#Cc1ccc2c(c1)[C@@H](N)C1(CCN(c3cc(=O)n(-c4ccc(C#N)c(Cl)c4Cl)c(C)n3)CC1)C2` [Compound 184], the pIC50 in assay [1] was 8.52; in assay [2] (2 hours), 7.17; in assay [3], 7.02.
Turning to `C#Cc1ccc2c(c1)[C@@H](N)C1(CCN(c3cc(=O)n(-c4cccc(C#N)c4Cl)c(C)n3)CC1)C2` [Compound 268], the pIC50 in assay [2] (2 hours) was 7.20; in assay [3], 7.77.
Turning to `C#Cc1ccc2c(c1)[C@@H](N)C1(CCN(c3cc(=O)n(-c4ccc(F)c(OC)c4F)c(C)n3)CC1)C2` [Compound 78], the pIC50 in assay [1] was 8.52; in assay [2] (2 hours), 7.37.
With `C#Cc1ccc2c(c1)CC1(CCN(c3ncc(Sc4ccnc(NCCO)c4Cl)c4nccn34)CC1)[C@@H]2N` [Compound 7], the pIC50 in assay [1] was 8.00; in assay [2] (Homo sapiens, MIA PaCa-2, 2 h) it was 7.55.
Regarding `C#Cc1ccc2c(c1)CC1(CCN(c3nc(N)c(-c4cn(C)c5ncccc45)c(=O)n3C)CC1)[C@@H]2N` [Compound 4, (S)-6-amino-2-(1-amino-5-ethynyl-1,3-dihydrospiro[indene-2,4′-piperidin]-1′-yl)-3-methyl-5-(1-methyl-1H-pyrrolo[2,3-b]pyridin-3-yl)pyrimidin-4(3H)-one], the pIC50 in assay [1] was 8.40; in assay [2] (Homo sapiens, MIA PaCa-2, 2 h), 6.80.
With `C#Cc1ccc2c(c1)[C@@H](N)C1(CCN(c3cc(=O)n(-c4ccc(F)c(OC)c4Cl)c(C)n3)CC1)C2` (atropisomer, axis not shown) [Compound 162], the pIC50 was 7.47 in assay [1] and 6.81 in assay [2] (2 hours).
Consider `C#Cc1ccc2c(c1)CC1(CCN(c3ncc(Sc4ccnc(N)n4)c4nccn34)CC1)[C@@H]2N` [Compound 9], for which the negative-log IC50 (pIC50) was 8.40 in assay [1] and 7.42 in assay [2] (Homo sapiens, MIA PaCa-2, 2 h).
Take `C#Cc1ccc2c(c1)[C@@H](N)C1(CCN(c3ncc(Sc4ccnc(N)n4)c(N)n3)CC1)C2` [Compound 213]: the pIC50 is 7.17 in assay [1] and 6.35 in assay [2] (Homo sapiens, MIA PaCa-2, 2 h).
Consider `C#Cc1ccc2c(c1)[C@@H](N)C1(CCN(c3cc(=O)n(-c4cccc(C(F)(F)F)c4Cl)c(C)n3)CC1)C2` [Compound 106], for which the figures for the pIC50 in assay [1] and in assay [2] (2 hours) were 8.05 and 7.08, respectively.
For the compound `CN(C)CC#Cc1ccc2c(c1)C(=O)C1(CCN(c3ncc(Sc4ccnc(N)c4Cl)c4nccn34)CC1)C2` [Compound 72], the pIC50 is 6.01 in assay [1] and < 6.00 in assay [2] (Homo sapiens, MIA PaCa-2, 2 h).
Take `Cc1nc(N2CCC3(CC2)Cc2ccc(C#CCN(C)C)cc2[C@H]3N)cc(=O)n1-c1cccc(F)c1Cl` [Compound 74]: the pIC50 is 8.40 in assay [1] and 6.65 in assay [2] (Homo sapiens, MIA PaCa-2, 2 h).
On the same counts, the results for `C#Cc1cc2c(cc1F)CC1(CCN(c3cc(=O)n(-c4cccc(Cl)c4Cl)c(C)n3)CC1)[C@@H]2N` [Compound 228] are 6.69 and < 6.00.
On the same counts, the results for `COCC#Cc1ccc2c(c1)[C@@H](N)C1(CCN(c3nc(C)c(Sc4ccnc(N)n4)c4nccn34)CC1)C2` [Compound 117] are 8.70 and 7.62.
As for `COCC#Cc1ccc2c(c1)[C@@H](N)C1(CCN(c3ncc(Sc4ccnc(N)n4)nc3CO)CC1)C2` [Compound 87, (S)-(3-(1-amino-6-(3-methoxyprop-1-yn-1-yl)-1,3-dihydrospiro[indene-2,4′-piperidin]-1′-yl)-6-((2-aminopyrimidin-4-yl)thio)pyrazin-2-yl)methanol], the pIC50 in assay [1] was 9.00; in assay [2] (Homo sapiens, MIA PaCa-2, 2 h), 8.70.
Regarding `C#Cc1ccc2c(c1)[C@@H](N)C1(CCN(c3cc(=O)n(-c4cccc(Cl)c4F)c(C)n3)CC1)C2` [Compound 16], the pIC50 was 8.40 in assay [1] and 7.47 in assay [2] (2 hours).
For the compound `C#Cc1ccc2c(c1)[C@@H](N)C1(CCN(c3cc(=O)n(-c4ccc(C#N)cc4Cl)c(C)n3)CC1)C2` [Compound 94], the pIC50 in assay [1] is 8.15; in assay [2] (Homo sapiens, MIA PaCa-2, 2 h) it was 6.81.
On the same counts, the results for `C#Cc1ccc2c(c1)CC1(CCN(c3ncc(-c4cn(C)c5ncccc45)c4nccn34)CC1)[C@@H]2N` [Compound 6] are 6.38 and < 5.52.
Consider `NC(=O)C#Cc1ccc2c(c1)[C@@H](N)C1(CCN(c3cnc(Sc4ccnc(N)c4Cl)c(N)n3)CC1)C2` [Compound 129], for which the pIC50 in assay [1] was 9.22; in assay [2] (Homo sapiens, MIA PaCa-2, 2 h) it was 8.52.
Consider `C#Cc1ccc2c(c1)[C@@H](N)C1(CCN(c3cc(=O)n(-c4cccc(Cl)c4Cl)c(C)n3)CC1)O2` [Compound 47], for which the pIC50 is 7.96 in assay [1] and 6.94 in assay [2] (Homo sapiens, MIA PaCa-2, 2 h).
The matching figures for `C#Cc1ccc2c(c1)[C@@H](N)C1(CCN(c3ncc(-c4cn(C)c5ncccc45)c(=O)n3C)CC1)C2` [Compound 285]: 7.07 and 6.02.
Regarding `C#Cc1ccc2c(c1)[C@@H](N)C1(CCN(c3nc(C)n(-c4cccc(Cl)c4Cl)c(=O)c3C)CC1)C2` (atropisomer, axis not shown) [Compound 49], the pIC50 was 8.52 in assay [1] and 7.74 in assay [2] (2 hours).
In the case of `COc1c(F)ccc(-n2c(C)nc(N3CCC4(CC3)Cc3ccc(C#CCN(C)C)cc3[C@H]4N)cc2=O)c1F` [Compound 83], the pIC50 in assay [1] is 9.00; in assay [2] (Homo sapiens, MIA PaCa-2, 2 h) it was 7.24.
The matching figures for `C#Cc1ccc2c(c1)[C@@H](N)C1(CCN(c3ncc(Sc4ccnc(N)n4)nc3CO)CC1)C2` [Compound 116]: 9.30 and 9.00.
On to `COCC#Cc1ccc2c(c1)[C@@H](N)C1(CCN(c3ncc(Sc4ccnc(N)c4Cl)c4nccn34)CC1)C2` [Compound 40], for which the pIC50 was 8.70 in assay [1] and 8.22 in assay [2] (Homo sapiens, MIA PaCa-2, 2 h).
On to `C#Cc1ccc2c(c1)[C@@H](N)C1(CCN(c3cc(=O)n(-c4cc(Cl)ccc4Cl)c(C)n3)CC1)C2` [Compound 73], for which the pIC50 in assay [1] was 6.60; in assay [2] (Homo sapiens, MIA PaCa-2, 2 h), < 6.00.
The matching figures for `Cc1nc(N2CCC3(CC2)Cc2ccc(C#CCN(C)C)cc2[C@H]3N)cc(=O)n1-c1ccc(F)c(Cl)c1Cl` [Compound 70]: 8.70 and 6.85.
As to `C#Cc1ccc2c(c1)[C@@H](N)C1(CCN(c3cc(=O)n(-c4ccc(F)c(F)c4)c(C)n3)CC1)C2` [Compound 15], the negative logarithm of the IC50 (pIC50) in assay [1] was 8.10; in assay [2] (Homo sapiens, MIA PaCa-2, 2 h), 7.06.
For the compound `C#Cc1ccc2c(c1)[C@@H](N)C1(CCN(c3nc(C)n(-c4ccc(F)cc4Cl)c(=O)c3C)CC1)C2` (atropisomer, axis not shown) [Compound 102], the pIC50 in assay [1] is 8.70; in assay [2] (2 hours), 7.92.
On to `CC#Cc1ccc2c(c1)[C@@H](N)C1(CCN(c3cnc(Sc4ccnc(N)n4)c(N)n3)CC1)C2` [Compound 134], for which the pIC50 in assay [1] was 8.85; in assay [2] (Homo sapiens, MIA PaCa-2, 2 h) it was 8.30.
As to `COCC#Cc1ccc2c(c1)[C@@H](N)C1(CCN(c3cnc(Sc4ccnc(N)c4Cl)c(N)n3)CC1)C2` [Compound 86], the negative logarithm of the IC50 (pIC50) in assay [1] is 8.70; in assay [2] (Homo sapiens, MIA PaCa-2, 2 h), 8.22.
The matching figures for `NC(=O)C#Cc1ccc2c(c1)[C@@H](N)C1(CCN(c3ncc(Sc4ccnc(N)n4)nc3CO)CC1)C2` [Compound 122]: 9.22 and 8.15.
For `CCNC(=O)C#Cc1ccc2c(c1)[C@@H](N)C1(CCN(c3cnc(Sc4ccnc(N)c4Cl)c(C#N)n3)CC1)C2` [Compound 272], the pIC50 was 7.77 in assay [1] and 6.60 in assay [2] (Homo sapiens, MIA PaCa-2, 2 h).
Turning to `C#Cc1ccc2c(c1)[C@@H](N)C1(CCN(c3cc(=O)n(-c4cccc(C#N)c4Cl)c(C)n3)CC1)C2` [Compound 34], the pIC50 in assay [1] is 8.40; in assay [2] (2 hours), 6.61.
As to `NC(=O)C#Cc1ccc2c(c1)[C@@H](N)C1(CCN(c3ncc(Sc4ccnc(N)c4Cl)nc3CO)CC1)C2` [Compound 123], the pIC50 in assay [1] is 9.22; in assay [2] (Homo sapiens, MIA PaCa-2, 2 h), 8.40.
Consider `C#Cc1ccc2c(c1)[C@@H](N)C1(CCN(c3cc(=O)n(-c4cccc(OC)c4Cl)c(C)n3)CC1)C2` [Compound 90], for which the pIC50 in assay [1] was 8.96; in assay [2] (2 hours), 7.28.
